Measurements from patent US8846704B2, “Thiopyrimidine-based compounds and uses thereof” (YM Biosciences Austraila Pty Ltd, priority 2007, dated 2014).

The compounds below were run against T1, BaF3 TELJAK3 cells (Homo sapiens, UniProt P52333) (assay: Cellular screening, BaF3 TEL:JAK3 cells, Alamar Blue). Conditions: 40 hr, read-out: BafT_J3 IC50_nM.
T1 construct: fused on or other part: TEL (ETV6) N-terminal part, coding nucleotides 1-487, serves as the oligomerising partner; It is fused through a Sal I site to the JAK3 kinase domain and expressed from pTRE2 in BaF3 cells bearing pTET-off; P41212 (Transcription factor ETV6)
T1 sequence (P52333 1-1124): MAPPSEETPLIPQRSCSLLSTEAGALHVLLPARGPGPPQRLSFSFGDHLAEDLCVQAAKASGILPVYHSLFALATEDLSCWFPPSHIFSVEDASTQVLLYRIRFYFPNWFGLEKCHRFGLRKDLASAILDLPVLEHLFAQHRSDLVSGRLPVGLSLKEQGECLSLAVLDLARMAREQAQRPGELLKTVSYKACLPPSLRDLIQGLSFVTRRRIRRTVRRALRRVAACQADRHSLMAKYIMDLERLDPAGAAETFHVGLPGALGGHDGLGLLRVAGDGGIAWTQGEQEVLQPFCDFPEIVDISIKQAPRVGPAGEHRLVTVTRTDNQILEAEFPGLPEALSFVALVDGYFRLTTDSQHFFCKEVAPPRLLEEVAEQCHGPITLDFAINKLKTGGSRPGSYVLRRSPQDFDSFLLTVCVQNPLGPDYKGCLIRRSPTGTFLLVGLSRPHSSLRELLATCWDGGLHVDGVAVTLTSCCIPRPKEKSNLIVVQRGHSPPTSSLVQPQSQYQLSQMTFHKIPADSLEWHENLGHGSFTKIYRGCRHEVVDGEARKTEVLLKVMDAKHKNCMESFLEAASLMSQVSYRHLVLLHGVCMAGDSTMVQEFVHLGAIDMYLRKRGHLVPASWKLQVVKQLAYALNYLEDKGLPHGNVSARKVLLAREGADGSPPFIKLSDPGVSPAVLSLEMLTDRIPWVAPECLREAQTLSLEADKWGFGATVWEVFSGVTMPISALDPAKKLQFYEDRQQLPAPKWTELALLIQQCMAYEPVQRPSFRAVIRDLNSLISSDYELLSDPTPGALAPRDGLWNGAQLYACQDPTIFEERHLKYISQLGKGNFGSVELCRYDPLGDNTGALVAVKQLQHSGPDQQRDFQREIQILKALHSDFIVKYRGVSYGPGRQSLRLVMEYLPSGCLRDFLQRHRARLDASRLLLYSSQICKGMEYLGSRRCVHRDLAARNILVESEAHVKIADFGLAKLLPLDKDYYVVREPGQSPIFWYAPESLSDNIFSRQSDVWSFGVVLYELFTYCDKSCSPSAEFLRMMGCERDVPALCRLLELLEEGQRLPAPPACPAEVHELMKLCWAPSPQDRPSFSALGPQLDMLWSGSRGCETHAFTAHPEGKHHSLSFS
Format: cell-based
Method: For screening purposes, compounds were diluted in 96 well plates at a concentration of 20 μM. Plates were warmed at 37° C. for 30 minutes before the assay was performed.
The coding region encompassing nucleotides 1-487 of TEL was amplified by PCR using the oligonucleotides STEL (5′-GGAGGATCCTGATCTCTCTCGCTGTGAGAC-3′) [SEQ ID NO 14] and 3TEL (5′-AGGC GTCGACTTCTTCTTCATGGTTCTG-3′) [SEQ ID NO 15] and U937 mRNA as a template. A […] restriction site was incorporated into the STEL primer, and a Sal I restriction site was incorporated into the 3TEL primer. The regions encompassing the kinase domain of JAK2 (nucleotides 2994-3914; JAK2F 5′-ACGC GTCGACGGTGCCTTTGAAGACCGGGAT-3′ [SEQ ID NO 16]; JAK2R 5′-ATAGTTTAGCGGCCGCTCAGAATGAAGGTCATTT-3′) [SEQ ID NO 17] and JAK3 (nucleotides 2520-3469; JAK3F 5′-GAAGTCGACTATGCCTGCCAAGACCCCACGATCTT-3′) [SEQ ID NO 18] were generated by PCR using Taq DNA polymerase (Gibco/BRL) and […] as a template. A Sal I restriction site was incorporated into the forward primer of JAK2 and JAK3, a Not I site was incorporated into the JAK2 reverse primer and a Xba I site was added to the reverse primer of JAK3.
The TEL/Jak3 fusion was prepared by ligation of the JAK3 Sal I/Not I cleaved kinase domain PCR product with the BamH I/Sal I restriction digested TEL product, followed by ligation of the ligation product into the BamH I/Not I digested pTRE2, to give the TEL/Jak3 fusion plasmid pTELJAK3.
The growth factor dependant myelomonocytic cell line BaF3 bearing the pTET-off plasmid (Clontech) was transfected with either pTELJAK2 or pTELJAK3, and the transfected cells were selected for growth-factor independent cell growth. The BaF3 wild-type cells were cultured in DMEM containing 10% FCS, 10% WEHI 3B conditioned medium. The BaF3 TELJAK cells ([…]) were cultured in DMEM 10% Tet-System Approved FBS (without WEHI 3B conditioned medium).
Cell suspensions were prepared by harvesting cells from culture (the cells used in this test were in late log phase growth with high viability.) Cells were diluted in the appropriate growth medium, as described above, to 1.1× final concentration (from 50,000 cell/mL to 200,000 cell/mL, depending on cell line).
Compounds to be tested were added (10 μL, 10× final concentration) to a flat bottomed 96-well plate. The cellular suspension (90 μL per well) was then added, and the plate incubated for 40 hr at 37° C., 5% CO2. Alamar Blue 10 μL per well was added and the plates returned to the incubator for a further 4-6 hours. The plates were then read at 544 nm.

SMILES | GI50
C=CC(=O)Nc1ccc(Sc2nc(Nc3ccc(N4CCOCC4)cc3)ncc2Br)cc1 [Compound 306, N-(4-(5-bromo-2-(4-morpholinophenylao)pyrimidin-4-ylthio)phenyl)acrylamide] | < 1000 nM
C=CC(=O)Nc1ccc(Sc2nc(Nc3cccc(N4CCN(C)CC4)c3)ncc2C)cc1 [Compound 243, N-(4-(5-methyl-2-(3-(4-methylpiperazin-1-yl)phenylao)pyrimidin-4-ylthio)phenyl)acrylamide] | < 1000 nM
C=CC(=O)Nc1ccc(Sc2nc(Nc3ccc(N4CCC(CO)CC4)cc3)ncc2C)cc1 [Compound 286, N-(4-(2-(4-(4-(hydroxymethyl)piperidin-1-yl)phenylao)-5-methylpyrimidin-4-ylthio)phenyl)acrylamide] | < 1000 nM
C=CC(=O)Nc1ccc(Sc2nc(Nc3ccc(N4CCC(CO)CC4)cc3)ncc2Br)cc1 [Compound 253, N-(4-(5-bromo-2-(4-(4-(hydroxymethyl)piperidin-1-yl)phenylao)pyrimidin-4-ylthio)phenyl)acrylamide] | < 1000 nM
C=CC(=O)Nc1ccc(Sc2nc(Nc3ccc(OCCCN(CC)CC)cc3)ncc2C)cc1 [Compound 291, N-(4-(2-(4-(3-(diethylao)propoxy)phenylao)-5-methylpyrimidin-4-ylthio)phenyl)acrylamide] | < 1000 nM
C=CC(=O)Nc1ccc(Sc2nc(Nc3ccc(OCCN4CCOCC4)cc3)ncc2C)cc1 [Compound 290, N-(4-(5-methyl-2-(4-(2-morpholinoethoxy)phenylao)pyrimidin-4-ylthio)phenyl)acrylamide] | < 1000 nM
CCOC(=O)/C=C/C(=O)Nc1ccc(Sc2nc(Nc3ccc(N4CCOCC4)cc3)ncc2C)cc1 [Compound 385, (E)-ethyl 4-(4-(5-methyl-2-(4-morpholinophenylao)pyrimidin-4-ylthio)phenylao)-4-oxobut-2-enoate] | < 1000 nM
Cc1cnc(Nc2ccc(N3CCOCC3)cc2)nc1Sc1ccc(N2C(=O)C=C(Br)C2=O)cc1 [Compound 382, 3-bromo-1-(4-(5-methyl-2-(4-morpholinophenylao)pyrimidin-4-ylthio)phenyl)-1H-pyrrole-2,5-dione] | < 20000 nM
Cc1cc(N)ccc1Sc1nc(Nc2ccc(N3CCOCC3)cc2)ncc1C [Compound 162, 4-(4-ao-2-methylphenylthio)-5-methyl-N-(4-morpholinophenyl)pyrimidin-2-ae] | < 5000 nM
C=CC(=O)Nc1ccc(Sc2nc(Nc3cccc(CO)c3)ncc2C)cc1 [Compound 280, N-(4-(2-(3-(hydroxymethyl)phenylao)-5-methylpyrimidin-4-ylthio)phenyl)acrylamide] | < 1000 nM
C=CC(=O)Nc1ccc(Sc2nc(Nc3ccc(OC)c(NS(C)(=O)=O)c3)ncc2C)cc1 [Compound 293, N-(4-(2-(4-methoxy-3-(methylsulfonamido)phenylao)-5-methylpyrimidin-4-ylthio)phenyl)acrylamide] | < 1000 nM
C=CC(=O)Nc1ccc(Sc2ccnc(Nc3ccc(N4CCOCC4)cc3)n2)cc1 [Compound 25, N-(4-(2-(4-morpholinophenylamino)pyrimidin-4-ylthio)phenyl)acrylamide] | < 1000 nM
C=CC(=O)Nc1ccc(Sc2nc(Nc3ccc(N4CCCC(O)C4)cc3)ncc2C)cc1 (stereo not shown) [Compound 299, N-(4-(2-(4-(3-hydroxypiperidin-1-yl)phenylao)-5-methylpyrimidin-4-ylthio)phenyl)acrylamide] | < 1000 nM
Cc1cnc(Nc2ccc(N3CCOCC3)cc2)nc1Sc1ccc(NC(=O)/C=C\C(=O)O)cc1 [Compound 380, (Z)-4-(4-(5-methyl-2-(4-morpholinophenylao)pyrimidin-4-ylthio)phenylao)-4-oxobut-2-enoic acid] | > 20000 nM
Cc1cnc(Nc2cccc(N3CCN(C)CC3)c2)nc1Sc1ccc(N)cc1 [Compound 245, 4-(4-aophenylthio)-5-methyl-N-(3-(4-methylpiperazin-1-yl)phenyl)pyrimidin-2-ae] | < 1000 nM
Cc1cnc(Nc2ccc(N3CCOCC3)cc2)nc1Sc1c(C)cc(N)cc1C [Compound 165, 4-(4-ao-2,6-dimethylphenylthio)-5-methyl-N-(4-morpholinophenyl)pyrimidin-2-ae] | > 20000 nM
